Laboratory results reported in article PMC12155096 (International Journal of Molecular Sciences, 2025).
Structures can show the parent of a compound that is named as a salt. Where two headings read alike, the source gives them in different places.

How the values were obtained:
[1] = molecular target: Photinus pyralis (firefly) luciferase (Photinus pyralis, UniProt P08659); assay: biochemical; assay type: biochemical
[2] = molecular target: T1, human CYP2C9 (Homo sapiens, UniProt P11712)
[3] = molecular target: T2, human CYP1A2 (Homo sapiens, UniProt P05177); assay: biochemical
T2 sequence (P05177 1-516): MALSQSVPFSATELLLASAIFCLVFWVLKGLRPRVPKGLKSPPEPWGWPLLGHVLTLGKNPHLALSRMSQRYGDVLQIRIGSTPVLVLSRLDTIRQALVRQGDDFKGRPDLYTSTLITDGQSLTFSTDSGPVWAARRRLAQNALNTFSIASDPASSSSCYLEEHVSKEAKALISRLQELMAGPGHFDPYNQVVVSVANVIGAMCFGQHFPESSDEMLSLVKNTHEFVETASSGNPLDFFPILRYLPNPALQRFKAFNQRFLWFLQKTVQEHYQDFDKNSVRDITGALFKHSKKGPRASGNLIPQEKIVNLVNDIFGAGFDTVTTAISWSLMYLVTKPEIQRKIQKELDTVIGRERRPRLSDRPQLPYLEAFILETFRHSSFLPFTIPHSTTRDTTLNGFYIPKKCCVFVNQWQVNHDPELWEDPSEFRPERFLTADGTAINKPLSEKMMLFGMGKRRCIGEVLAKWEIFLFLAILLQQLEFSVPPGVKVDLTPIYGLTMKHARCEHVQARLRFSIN

[4] = molecular target: T3, human CYP2C19 (Homo sapiens, UniProt P33261); assay: biochemical
T3 sequence (P33261 whole entry): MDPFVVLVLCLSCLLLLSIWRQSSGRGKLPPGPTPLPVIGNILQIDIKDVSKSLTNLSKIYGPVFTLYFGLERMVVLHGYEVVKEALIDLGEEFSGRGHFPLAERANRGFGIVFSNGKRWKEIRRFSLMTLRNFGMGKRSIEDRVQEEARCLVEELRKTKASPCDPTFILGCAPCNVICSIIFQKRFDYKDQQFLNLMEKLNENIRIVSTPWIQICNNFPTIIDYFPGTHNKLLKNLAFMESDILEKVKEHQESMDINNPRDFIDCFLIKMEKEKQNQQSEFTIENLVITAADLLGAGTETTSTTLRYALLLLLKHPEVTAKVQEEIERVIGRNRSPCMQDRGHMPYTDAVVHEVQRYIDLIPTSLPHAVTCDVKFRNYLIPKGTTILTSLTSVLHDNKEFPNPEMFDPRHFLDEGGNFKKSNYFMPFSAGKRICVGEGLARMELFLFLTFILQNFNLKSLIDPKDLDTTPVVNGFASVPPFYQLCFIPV

[5] = molecular target: T4, human CYP2D6 (Homo sapiens, UniProt P10635); assay: biochemical; settings: for AC50: CYP2D6 AC50 (half-maximal activity concentration)
T4 sequence (P10635 whole entry): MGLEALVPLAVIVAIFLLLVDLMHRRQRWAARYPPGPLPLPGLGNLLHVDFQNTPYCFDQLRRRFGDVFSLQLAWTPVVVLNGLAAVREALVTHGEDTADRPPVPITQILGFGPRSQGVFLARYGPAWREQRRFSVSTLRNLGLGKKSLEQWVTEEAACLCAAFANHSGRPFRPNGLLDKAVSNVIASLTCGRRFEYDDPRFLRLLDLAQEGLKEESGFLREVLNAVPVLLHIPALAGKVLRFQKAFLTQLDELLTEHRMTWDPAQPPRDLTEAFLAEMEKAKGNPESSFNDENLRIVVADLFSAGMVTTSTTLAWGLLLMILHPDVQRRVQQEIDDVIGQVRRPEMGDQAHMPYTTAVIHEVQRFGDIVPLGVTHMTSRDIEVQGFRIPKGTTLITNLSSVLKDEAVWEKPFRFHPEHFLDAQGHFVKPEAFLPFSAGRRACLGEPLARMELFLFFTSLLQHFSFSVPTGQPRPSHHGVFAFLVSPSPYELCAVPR

[6] = molecular target: T5, CYP3A4 (Homo sapiens, UniProt P08684); assay: biochemical; settings: for AC50: CYP3A4 AC50 (half-maximal activity concentration)
T5 sequence (P08684 whole entry): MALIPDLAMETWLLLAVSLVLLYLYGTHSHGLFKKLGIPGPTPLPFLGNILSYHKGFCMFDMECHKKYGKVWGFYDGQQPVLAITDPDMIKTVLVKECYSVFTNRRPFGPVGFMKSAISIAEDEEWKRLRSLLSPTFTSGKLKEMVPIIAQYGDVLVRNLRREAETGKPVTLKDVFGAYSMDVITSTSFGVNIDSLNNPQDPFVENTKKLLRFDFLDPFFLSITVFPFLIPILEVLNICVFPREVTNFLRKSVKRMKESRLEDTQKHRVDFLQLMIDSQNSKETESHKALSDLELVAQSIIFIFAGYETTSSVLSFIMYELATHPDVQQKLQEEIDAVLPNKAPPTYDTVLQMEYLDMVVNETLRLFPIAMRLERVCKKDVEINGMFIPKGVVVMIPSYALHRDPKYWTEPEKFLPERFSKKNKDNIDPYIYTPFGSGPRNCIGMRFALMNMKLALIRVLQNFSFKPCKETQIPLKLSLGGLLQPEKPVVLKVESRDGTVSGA

[7] = molecular target: T2, human CYP1A2
[8] = molecular target: T3, human CYP2C19
[9] = molecular target: T5, CYP3A4
[10] = molecular target: T1, human CYP2C9; assay: biochemical
[11] = molecular target: T4, human CYP2D6; settings: human, 1 h
[12] = CYP1A2 IC50 (half-maximal inhibitory concentration)
[13] = CYP2C19 IC50 (half-maximal inhibitory concentration)
[14] = CYP2D6 IC50 (half-maximal inhibitory concentration)
[15] = CYP3A4 IC50 (half-maximal inhibitory concentration)
[16] = CYP2C9 IC50 (half-maximal inhibitory concentration)

T1 sequence (P11712 whole entry): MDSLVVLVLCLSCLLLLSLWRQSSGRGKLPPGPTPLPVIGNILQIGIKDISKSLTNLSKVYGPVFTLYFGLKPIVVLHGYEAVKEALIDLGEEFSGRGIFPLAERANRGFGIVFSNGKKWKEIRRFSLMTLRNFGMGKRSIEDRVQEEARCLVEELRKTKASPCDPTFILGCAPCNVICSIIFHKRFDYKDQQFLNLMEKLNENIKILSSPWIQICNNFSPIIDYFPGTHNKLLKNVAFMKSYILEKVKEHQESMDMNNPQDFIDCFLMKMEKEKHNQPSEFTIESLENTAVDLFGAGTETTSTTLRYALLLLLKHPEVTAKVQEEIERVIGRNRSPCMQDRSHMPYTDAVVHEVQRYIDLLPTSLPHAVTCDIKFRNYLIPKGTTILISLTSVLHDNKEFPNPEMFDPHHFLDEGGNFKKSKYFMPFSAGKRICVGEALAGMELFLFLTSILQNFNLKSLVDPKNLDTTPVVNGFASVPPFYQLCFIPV
Photinus pyralis (firefly) luciferase, sequence (P08659 whole entry): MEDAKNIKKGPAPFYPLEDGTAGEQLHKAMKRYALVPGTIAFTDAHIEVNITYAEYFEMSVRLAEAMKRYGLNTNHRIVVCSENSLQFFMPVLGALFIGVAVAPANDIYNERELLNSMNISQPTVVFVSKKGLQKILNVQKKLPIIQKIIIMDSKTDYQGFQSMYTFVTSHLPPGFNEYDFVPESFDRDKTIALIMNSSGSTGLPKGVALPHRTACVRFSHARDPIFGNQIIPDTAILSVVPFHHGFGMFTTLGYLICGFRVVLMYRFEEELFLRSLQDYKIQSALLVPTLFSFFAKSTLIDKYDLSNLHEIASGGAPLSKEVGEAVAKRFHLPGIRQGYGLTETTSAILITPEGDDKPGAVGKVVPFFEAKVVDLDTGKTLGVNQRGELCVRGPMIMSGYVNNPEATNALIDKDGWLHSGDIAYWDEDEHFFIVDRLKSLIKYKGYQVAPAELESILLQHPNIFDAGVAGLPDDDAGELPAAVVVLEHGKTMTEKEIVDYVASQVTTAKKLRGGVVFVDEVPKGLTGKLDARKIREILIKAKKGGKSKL

SMILES | Luciferase IC50 (half-maximal inhibitory concentration) [1] | IC50 [5] [µM] | IC50 [3, 12] [µM] | IC50 [4, 13] [µM] | IC50 [5, 14] [µM] | IC50 [6, 15] [µM] | Luciferase IC50 [1] | IC50 ([3]; CYP1A2 IC50) [µM] | IC50 ([4]; CYP2C19 IC50) [µM] | IC50 ([6]; CYP3A4 IC50) [µM] | other results
C=CCOc1cc(Cl)ccc1C(=O)NCCN(CC)CC [Alloclamide] | Inactive | 0.28 | – | – | – | – | – | – | – | – | CYP2C9 IC50 (half-maximal inhibitory concentration) [2]: Inactive; IC50 [3]: 3.34 µM; IC50 [4]: 26.8 µM; IC50 [6]: 16.8 µM
CN(C)c1ccc(C(=N)c2ccc(N(C)C)cc2)cc1 [Auramine hydrochloride] | Inactive | – | 25.3 | 21 | 0.08 | 39.3 | – | – | – | – | CYP2C9 IC50 (half-maximal inhibitory concentration) [2]: Inactive
CN1CCc2cc(Cl)c(O)cc2[C@H]2c3ccccc3CC[C@@H]21 [Ecopipam] | – | – | – | – | – | – | Inactive | – | – | – | CYP1A2 IC50 [7]: Inactive; CYP2C9 IC50 [2]: Inactive; CYP2C19 IC50 [8]: Inactive; CYP3A4 IC50 [9]: 1.89 ± 0.26 (95 ± 11) µM; AC50 [5]: 0.01 µM; IC50 ([5]; CYP2D6 IC50): 0.01 µM; AC50 [6]: 1.89 µM
OC(Cn1cncn1)(c1ccc(F)cc1)c1ccccc1F (stereo not shown) [Flutriafol] | Inactive | – | 35.7 | 1.63 | 37 | 0.24 | – | – | – | – | IC50 [10, 16]: 0.77 µM
CCCCC(O)(Cn1cncn1)c1ccc(Cl)cc1Cl (stereo not shown) [Hexaconazole] | Inactive | – | 37 | 0.3 | 33 | 0.11 | – | – | – | – | IC50 [10, 16]: 0.52 µM
COP(N)(=S)Oc1ccccc1C(=O)OC(C)C (stereo not shown) [Isocarbophos] | Inactive | – | 1.14 | 0.13 | 46.1 | 1.61 | – | – | – | – | IC50 [10, 16]: 5.11 µM
CCOP(=S)(NC(C)C)Oc1ccccc1C(=O)OC(C)C (stereo not shown) [Isofenphos] | Inactive | 60.6 | 9.71 | 0.19 | – | 0.68 | – | – | – | – | IC50 [10]: 1.44 µM
CCOP(=S)(OCC)Oc1cc(-c2ccccc2)on1 [Isoxathion] | – | 35.6 | – | – | – | – | – | 3.92 | 2.55 | 2.11 | IC50 [1]: 33 µM; IC50 [10]: 0.75 µM
O=C1C2(Cl)C3(Cl)C4(Cl)C(Cl)(Cl)C5(Cl)C3(Cl)C1(Cl)C5(Cl)C24Cl (stereo not shown) [Kepone] | – | 67.9 | – | – | – | – | Inactive | 36.4 | 0.87 | 3.13 | IC50 [10]: 6.47 µM
CC(CCc1ccccc1)NCC(O)c1ccc(O)c(C(N)=O)c1 (stereo not shown) [Labetalol hydrochloride] | Inactive | – | – | – | 0.62 | – | – | – | – | – | CYP1A2 IC50 (half-maximal inhibitory concentration) [7]: Inactive; CYP2C9 IC50 (half-maximal inhibitory concentration) [2]: Inactive; CYP3A4 IC50 (half-maximal inhibitory concentration) [9]: 34.77 ± 1.39 (96 ± 9) µM; AC50 [5]: 0.62 µM; AC50 [6]: 34.8 µM
CCCCN(CCCC)CC(O)c1cc(Cl)cc2c1-c1ccc(Cl)cc1/C2=C/c1ccc(Cl)cc1 (stereo not shown) [Lumefantrine] | – | – | – | – | – | – | Inactive | 14.8 | 26.9 | 16.8 | IC50 ([10]; CYP2C9 IC50): 16.2 µM; IC50 ([5]; CYP2D6 IC50): 0.69 µM
CCN(CC)C(=O)[C@@H]1C=C2c3cccc4[nH]cc(c34)C[C@H]2N(C)C1 [Lysergide] | – | – | – | – | – | – | Inactive | 151 | 156 | 71.8 | IC50 ([10]; CYP2C9 IC50): 72.9 µM; IC50 ([5]; CYP2D6 IC50): 0.43 µM
CCCCC(CC)CN1C(=O)C2C3C=CC(C3)C2C1=O (stereo not shown) [MGK-264] | – | 31.4 | – | – | – | – | Inactive | – | – | – | CYP2D6 Efficacy [11]: 31.36 ± 8.74 (-86 ± 27) %; IC50 [3]: 18.6 µM; IC50 [10]: 10.1 µM; IC50 [4]: 4.9 µM; IC50 [6]: 0.86 µM
CCOC(=O)N(C)C(=O)CSP(=S)(OCC)OCC [Mecarbam] | – | – | – | – | – | – | Inactive | 2.91 | 0.09 | 2.6 | IC50 ([10]; CYP2C9 IC50): 0.7 µM; IC50 ([5]; CYP2D6 IC50): 27.5 µM
